Test results as given in publication PMC8305076, “Comprehensive Evaluation of Biological Effects of Pentathiepins on Various Human Cancer Cell Lines and Insights into Their Mode of Action” (International Journal of Molecular Sciences, 2021).

Experiments:
Type in all cases: cell-based, human
[1] = system: caspase-3 and -7 in HAP-1; experiment: luminescent caspase activity assay; conditions: pentathiepins IC90, doxorubicin 0.5 µM, 24 h
Description: To further corroborate this mode of cell death, we performed a luminescent caspase assay by measuring caspase-3 (cas-3) and caspase-7 (cas-7) activities (Figure 16). Both are executioner caspases that are present as zymogens (35 kDa) and become active after being cleaved (fragment sizes 17 and 19 kDa) by initiator caspases. Activated cas-3 and -7 in turn have several other substrates, including PARP1. In this assay, a precursor with a caspase-specific target sequence was converted into its luminescent form by active caspase-3 or -7, thereby emitting light that can be quantified.
To study the activation of the effector caspases -3 and -7, we performed a luminescence-based assay according to the manufacturer’s instructions (Caspase-Glo, Promega, Walldorf, Germany). Briefly, 5000 cells were seeded in 0.1 mL per well of a 96-well plate and allowed to adhere overnight. […] Afterwards, the standard protocol was followed, including a 30 min incubation time before measurement of luminescent signals by using the Spectramax i3x (Molecular Devices, Sunnyvale, CA, USA). After subtraction of the background luminescence the positive control and treatment conditions were related to the negative control.

[2] = system: DanG; experiment: DCFDA flow cytometric ROS assay, acute; conditions: 25 µM, 15 min
Protocol: (§1) According to the hypothesized mechanism of action (see Figure 3), pentathiepins can create oxidative stress via generation of reactive sulfur precursors. We have previously reported that a representative pentathiepin can increase the intracellular levels of ROS in two cancer cell lines. This effect was thus further evaluated with the new compounds in seven cell lines (Figure 8). The cells were incubated for 15 min with 25.0 µM pentathiepin and subsequently analyzed by using the intracellular ROS sensor 2′,7′-dichlorodihydrofluorescein diacetate (DCFDA) by flow cytometry.
(§2) In order to quantify intracellular ROS, we performed a flow cytometric assay based on the ROS-sensor 2′,7′-dichlorofluorescein diacetate (DCFDA). For acute effects of pentathiepins on intracellular ROS levels, the cells were stained with DCFDA first and subsequently incubated with 25 µM of compound for 10 min. […] Per condition, 250,000 cells were seeded in 2 mL of medium per well of a 6-well plate and allowed to adhere overnight. For measurement of acute ROS, the cells were stained with 1 mL of a 20 µM DCFDA-PBS solution for 30 min under standard incubation conditions. Afterwards, the solution was discarded, and the monolayer washed twice with 1 mL of PBS before 3 mL of medium containing 25 µM of pentathiepin was added for 10 min at 37 °C. After removing the solution and washing again with PBS, the cells were detached by using 0.5 mL of a diluted trypsin/EDTA-PBS solution (25%) and harvested with 1 mL of culture medium by carefully rinsing the wells. The cell suspension was transferred to 1.5 mL tubes, centrifuged for 5 min at 500× g, and washed with 1 mL of PBS. After removing the supernatant, each pellet was resuspended in 0.5 mL of PBS for measurement via the MACSquant Analyzer 10 at λEx/Em = 488/530 nm. Relative ROS levels resulting from treatment with pentathiepin were calculated by relating the fluorescence intensity of treated samples to the negative control. For the experiments covering periods of 24 and 48 h, the cells were incubated with the compounds first and stained with DCFDA afterwards. To assess the influence of additional GSH, we included 3 or 30 µM GSH to the medium containing 25 µM of pentathiepin, and the protocol was followed as described.

[3] = system: PATU-8902; experiment: DCFDA flow cytometric ROS assay, acute; conditions: 25 µM, 15 min
Protocol: as §1, §2

[4] = system: HAP-1, HAP-1.KO.GPx1, and Siso; experiment: alkaline Comet assay (summary); design: key: no impact (0); weak impact (+); strong impact (++); conditions: summary grade
Description: Next, the potential of the pentathiepins 1–6 to damage nuclear DNA was investigated in the cell lines HAP-1, HAP-1.KO.GPx1, and Siso, with different expression levels of GPx1 and CAT (see Figure 7), by Comet Assay (Figure 12) with representative images in the Supplementary Materials (Figure S48).
With this assay, the intensity of DNA damage can be assessed on the level of a single cell, in case of the alkaline version detecting both single and double strand breaks as well as alkali-labile sites. The method presented here is an adaptation of the protocol published by Olive and Banath and based on the distinct electrophoretic mobility of damaged and intact genomic DNA. The latter has a low mobility; does thus not migrate in the electric field; and remains in a nucleoid shape after lysis, referred to as the comet head. In contrast, when strand breaks are created, free charged ends emerge and increase the electrophoretic mobility, prompting DNA segments to drift away from the comet head, thereby forming the so-called comet tail. As descriptor of still intact genomic DNA, the percentage of DNA in the comet head was selected. Per condition, 50,000 cells of either Siso, HAP-1, or HAP-1.KO.GPx1 were diluted in 1 mL of PBS and subsequently treated with either a 1% DMF aqueous solution as negative control, 20 µM of H2O2 as positive control, or 25 µM of pentathiepin for 15 min on ice to impair intracellular DNA repair mechanisms. Afterwards, 400 µL of the cell suspension was blended with 1.2 mL of a 1% low melting point agarose solution (40 °C) and smoothly distributed on agarose-precoated glass slides. Polymerization was finished after 3 min at RT, and the slides were horizontally submerged in alkaline lysis buffer (1.2 M NaCl, 0.1% N-lauryl-sarcosinate, 0.1 M Na-EDTA, 0.26 M NaOH) before storing them at 4 °C overnight. The slides were then rinsed three times in rinse/electrophoresis buffer (0.002 M Na-EDTA, 0.03 M NaOH) before electrophoretic separation was performed for 25 min at 0.6 V/cm. A neutralization step by adding distilled water was followed by staining the slides with 250 µL of an aqueous 10 µg/mL PI solution for 20 min. For visualization and image capturing, a DMi8 fluorescent microscope and LASX software (Leica Microsystems, Wetzlar, Germany) were used, and the comets scored with the help of CometScore2.0 (rexhoover.com). Per condition and replicate, at least 100 comets were analyzed to calculate a mean level of damage.

SMILES	caspase-3 and -7 activity vs solvent control [1]	intracellular ROS levels [2]	intracellular ROS levels [3]	Comet formation [4]
CCOc1c2c(c3ccc(C(=O)N(CC)CC)cn13)SSSSS2 [Compound 4, 6-Ethoxy-N,N’-diethyl-[1,2,3,4,5]pentathiepino[6,7-a]indolizine-9-carboxamide]	statistically significant results	high levels of intracellular ROS were detected	high levels of intracellular ROS were detected	++
CCOc1c2c(c3cnc4[nH]c(-c5ccc(OC)cc5)cc4n13)SSSSS2 [Compound 1, 11-Ethoxy-2-(4-methoxyphenyl)-3H-[1,2,3,4,5]pentathiepino[6′,7′:3,4]pyrrolo[1,2-a]pyrrolo[2,3-e]pyrazine]				+
CCOc1c2c(c3ccc(C(=O)N4CCCCC4)cn13)SSSSS2 [Compound 2, (6-Ethoxy-[1,2,3,4,5]pentathiepino[6,7-a]indolizin-9-yl)(piperidinyl)methanone]	statistically significant results	high levels of intracellular ROS were detected	high levels of intracellular ROS were detected	+
CCOc1c2c(c3ccc(C(=O)N4CCOCC4)cn13)SSSSS2 [Compound 3, (6-Ethoxy-[1,2,3,4,5]pentathiepino[6,7-a]indolizin-9-yl)(morpholino)methanone]		high levels of intracellular ROS were detected	high levels of intracellular ROS were detected	++
CCOc1c2c(c3ccc(C(=O)N4CCN(C(=O)c5ccc(F)cc5)CC4)cn13)SSSSS2 [Compound 5, (6-Ethoxy-[1,2,3,4,5]pentathiepino[6,7-a]indolizin-9-yl)(4-(4-fluorobenzoyl)piperazinyl)methanone]		high levels of intracellular ROS were detected	high levels of intracellular ROS were detected	++
CCOc1c2c(c3ccc(C(=O)N4CCN(S(=O)(=O)c5ccc(C)cc5)CC4)cn13)SSSSS2 [Compound 6, (6-Ethoxy-[1,2,3,4,5]pentathiepino[6,7-a]indolizin-9-yl)(4-tosylpiperazinyl)methanone]	statistically significant results			+
